According to PubChem BioAssay AID1963831 (Molecular Pharmacology Branch, DTP, NCI, 2024):

System: 889142-216-R-J1-PDC complex spheroid viability
Assay: Anticancer human tumor 889142-216-R-J1-PDC patient-derived bladder carcinoma cell line growth inhibition [POLQ]
Conditions: for IC50: curve of first compound; for viability, T/C: stronger effect = lower value
Method in brief: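 Growth inhibition in 3D: complex spheroids (tumor PDC, HUVEC, MSC) treated with POLQ inhibitor combinations; where Cmax unknown, highest tested concentration 10 microM, except SN-38 at 1 microM.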

[1] = second compound 0.0316 µM, first compound 0.0316 µM
[2] = second compound 0.0316 µM, first compound 0.1 µM
[3] = second compound 0.0316 µM, first compound 0.316 µM
[4] = second compound 0.0316 µM, first compound 1 µM
[5] = second compound 0.0316 µM, first compound 3.16 µM
[6] = second compound 0.0316 µM, first compound 10 µM
[7] = second compound 0.1 µM, first compound 0.0316 µM
[8] = second compound 0.1 µM, first compound 0.1 µM
[9] = second compound 0.1 µM, first compound 0.316 µM
[10] = second compound 0.1 µM, first compound 1 µM
[11] = second compound 0.1 µM, first compound 3.16 µM
[12] = second compound 0.1 µM, first compound 10 µM
[13] = second compound 0.316 µM, first compound 0.0316 µM
[14] = second compound 0.316 µM, first compound 0.1 µM
[15] = second compound 0.316 µM, first compound 0.316 µM
[16] = second compound 0.316 µM, first compound 1 µM
[17] = second compound 0.316 µM, first compound 3.16 µM
[18] = second compound 0.316 µM, first compound 10 µM
[19] = second compound 1 µM, first compound 0.0316 µM
[20] = second compound 1 µM, first compound 0.1 µM
[21] = second compound 1 µM, first compound 0.316 µM
[22] = second compound 1 µM, first compound 1 µM
[23] = second compound 1 µM, first compound 3.16 µM
[24] = second compound 1 µM, first compound 10 µM
[25] = second compound 3.16 µM, first compound 0.0316 µM
[26] = second compound 3.16 µM, first compound 0.1 µM
[27] = second compound 3.16 µM, first compound 0.316 µM
[28] = second compound 3.16 µM, first compound 1 µM
[29] = second compound 3.16 µM, first compound 3.16 µM
[30] = second compound 3.16 µM, first compound 10 µM
[31] = second compound 10 µM, first compound 0.0316 µM
[32] = second compound 10 µM, first compound 0.1 µM
[33] = second compound 10 µM, first compound 0.316 µM
[34] = second compound 10 µM, first compound 1 µM
[35] = second compound 10 µM, first compound 3.16 µM
[36] = second compound 10 µM, first compound 10 µM
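Also: spheroids exposed to compounds for seven days.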
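For viability, T/C in this document: 100% = DMSO vehicle control viability.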

`C#Cc1c(F)ccc2cc(O)cc(-c3ncc4c(N5CC6CCC(C5)N6)nc(OCC56CCCN5CC(F)C6)nc4c3F)c12` (stereo unspecified) + Cc1cccc(N(C)C(=O)C2C(O)CCN2c2nc(C)cc(C(F)(F)F)c2C#N)c1 showed an IC50 (second compound 0.0316 µM) of 6.08 µM, an IC50 (second compound 0.1 µM) of 5.01 µM and an IC50 (second compound 0.316 µM) of 5.26 µM. For the same molecule, the IC50 (second compound 1 µM) was 7.76 µM, the IC50 (second compound 3.16 µM) was 4.97 µM and the IC50 (second compound 10 µM) was 5.01 µM. For the same molecule, the viability, T/C [1] was 106%, the viability, T/C [2] was 87.8% and the viability, T/C [3] was 82.6%. It also gave a viability, T/C [4] of 103%, a viability, T/C [5] of 74.8% and a viability, T/C [6] of 31.1%. The viability, T/C [7] was 104%, the viability, T/C [8] was 100% and the viability, T/C [9] was 78.3%. The viability, T/C [10] was 97.8%, the viability, T/C [11] was 62% and the viability, T/C [12] was 31.9%. For the same molecule, the viability, T/C [13] was 90.2%, the viability, T/C [14] was 81.3% and the viability, T/C [15] was 66.4%. The viability, T/C [16] was 93.7%, the viability, T/C [17] was 60.8% and the viability, T/C [18] was 36.3%. The viability, T/C [19] was 88.6%, the viability, T/C [20] was 69.1% and the viability, T/C [21] was 94%. It also gave a viability, T/C [22] of 71.2%, a viability, T/C [23] of 108% and a viability, T/C [24] of 39.7%. It also gave a viability, T/C [25] of 98.2%, a viability, T/C [26] of 85.2% and a viability, T/C [27] of 64.8%. For the same molecule, the viability, T/C [28] was 74%, the viability, T/C [29] was 72.5% and the viability, T/C [30] was 30.5%. The viability, T/C [31] was 79.3%, the viability, T/C [32] was 71.4% and the viability, T/C [33] was 65.8%. The viability, T/C [34] was 69.7%, the viability, T/C [35] was 73% and the viability, T/C [36] was 17.2%.

In the case of `CC(=O)O[C@H]1C(=O)[C@@]2(C)[C@H]([C@H](OC(=O)c3ccccc3)[C@]3(O)C[C@H](OC(=O)[C@H](O)[C@@H](NC(=O)c4ccccc4)c4ccccc4)C(C)=C1C3(C)C)[C@]1(OC(C)=O)CO[C@@H]1C[C@@H]2O` + COC1C(OC(N)=O)C(O)C(Oc2ccc3c(O)c(NC(=O)c4ccc(O)c(CC=C(C)C)c4)c(=O)oc3c2C)OC1(C)C, the IC50 (second compound 0.0316 µM) is reported as under 0.00949 µM, the IC50 (second compound 0.1 µM) is reported as under 0.00949 µM and the IC50 (second compound 0.316 µM) is reported as under 0.00949 µM. It also gave an IC50 (second compound 1 µM) of under 0.00949 µM, an IC50 (second compound 3.16 µM) of under 0.00949 µM and an IC50 (second compound 10 µM) of under 0.00949 µM. For the same molecule, the viability, T/C (second compound 0.0316 µM, first compound 0.00949 µM) was 42%, the viability, T/C (second compound 0.0316 µM, first compound 0.03 µM) was 37.3% and the viability, T/C (second compound 0.0316 µM, first compound 0.0949 µM) was 36.2%. For the same molecule, the viability, T/C (second compound 0.0316 µM, first compound 0.3 µM) was 35%, the viability, T/C (second compound 0.0316 µM, first compound 0.949 µM) was 40.6% and the viability, T/C (second compound 0.0316 µM, first compound 3 µM) was 43%. For the same molecule, the viability, T/C (second compound 0.1 µM, first compound 0.00949 µM) was 40%, the viability, T/C (second compound 0.1 µM, first compound 0.03 µM) was 29.9% and the viability, T/C (second compound 0.1 µM, first compound 0.0949 µM) was 40.6%. The viability, T/C (second compound 0.1 µM, first compound 0.3 µM) was 34.2%, the viability, T/C (second compound 0.1 µM, first compound 0.949 µM) was 37.4% and the viability, T/C (second compound 0.1 µM, first compound 3 µM) was 38.5%. It also gave a viability, T/C (second compound 0.316 µM, first compound 0.00949 µM) of 38.3%, a viability, T/C (second compound 0.316 µM, first compound 0.03 µM) of 37.2% and a viability, T/C (second compound 0.316 µM, first compound 0.0949 µM) of 41.3%. For the same molecule, the viability, T/C (second compound 0.316 µM, first compound 0.3 µM) was 32.9%, the viability, T/C (second compound 0.316 µM, first compound 0.949 µM) was 34% and the viability, T/C (second compound 0.316 µM, first compound 3 µM) was 37.4%. The viability, T/C (second compound 1 µM, first compound 0.00949 µM) was 39.9%, the viability, T/C (second compound 1 µM, first compound 0.03 µM) was 40% and the viability, T/C (second compound 1 µM, first compound 0.0949 µM) was 43.9%. For the same molecule, the viability, T/C (second compound 1 µM, first compound 0.3 µM) was 37.5%, the viability, T/C (second compound 1 µM, first compound 0.949 µM) was 35.3% and the viability, T/C (second compound 1 µM, first compound 3 µM) was 39.7%. For the same molecule, the viability, T/C (second compound 3.16 µM, first compound 0.00949 µM) was 39.1%, the viability, T/C (second compound 3.16 µM, first compound 0.03 µM) was 38.1% and the viability, T/C (second compound 3.16 µM, first compound 0.0949 µM) was 39%. For the same molecule, the viability, T/C (second compound 3.16 µM, first compound 0.3 µM) was 39.7%, the viability, T/C (second compound 3.16 µM, first compound 0.949 µM) was 41.2% and the viability, T/C (second compound 3.16 µM, first compound 3 µM) was 40.4%. It also gave a viability, T/C (second compound 10 µM, first compound 0.00949 µM) of 41.1%, a viability, T/C (second compound 10 µM, first compound 0.03 µM) of 38.1% and a viability, T/C (second compound 10 µM, first compound 0.0949 µM) of 40.4%. The viability, T/C (second compound 10 µM, first compound 0.3 µM) was 45.2%, the viability, T/C (second compound 10 µM, first compound 0.949 µM) was 38.5% and the viability, T/C (second compound 10 µM, first compound 3 µM) was 39.5%.

`O=C(Nc1ccc(O)c(NS(=O)(=O)c2ccc(F)cc2)c1)c1ccc(-c2ccccc2)cc1` + Cc1cccc(N(C)C(=O)C2C(O)CCN2c2nc(C)cc(C(F)(F)F)c2C#N)c1 gave an IC50 (second compound 0.0316 µM) of over 10 µM, an IC50 (second compound 0.1 µM) of over 10 µM and an IC50 (second compound 0.316 µM) of over 10 µM. The IC50 (second compound 1 µM) was over 10 µM, the IC50 (second compound 3.16 µM) was over 10 µM and the IC50 (second compound 10 µM) was over 10 µM. The viability, T/C [1] was 103%, the viability, T/C [2] was 106% and the viability, T/C [3] was 112%. It also gave a viability, T/C [4] of 134%, a viability, T/C [5] of 101% and a viability, T/C [6] of 85.1%. The viability, T/C [7] was 94.9%, the viability, T/C [8] was 121% and the viability, T/C [9] was 98.1%. For the same molecule, the viability, T/C [10] was 127%, the viability, T/C [11] was 126% and the viability, T/C [12] was 86.4%. For the same molecule, the viability, T/C [13] was 140%, the viability, T/C [14] was 93.2% and the viability, T/C [15] was 85.9%. It also gave a viability, T/C [16] of 120%, a viability, T/C [17] of 112% and a viability, T/C [18] of 80.2%. The viability, T/C [19] was 96.2%, the viability, T/C [20] was 96.7% and the viability, T/C [21] was 84%. It also gave a viability, T/C [22] of 97.5%, a viability, T/C [23] of 131% and a viability, T/C [24] of 70.4%. The viability, T/C [25] was 87.8%, the viability, T/C [26] was 123% and the viability, T/C [27] was 121%. The viability, T/C [28] was 107%, the viability, T/C [29] was 91.2% and the viability, T/C [30] was 77.6%. The viability, T/C [31] was 69.3%, the viability, T/C [32] was 98.9% and the viability, T/C [33] was 97%. It also gave a viability, T/C [34] of 89.6%, a viability, T/C [35] of 85.3% and a viability, T/C [36] of 69.4%.
